Assays:
human TNAP = biological target: T1, human TNAP (Homo sapiens, UniProt P05186); assay: Inhibitory test of TNAP activity (pNPP substrate, p-nitrophenol production); format: biochemical; conditions: human TNAP from culture supernatant of transfected COS1 cells, 60 minutes at room temperature, ABS 405 nm
T1 construct: host or cells: COS1 cells, concentrated and dialyzed culture supernatant
T1 sequence (P05186 18-502 limits assumed): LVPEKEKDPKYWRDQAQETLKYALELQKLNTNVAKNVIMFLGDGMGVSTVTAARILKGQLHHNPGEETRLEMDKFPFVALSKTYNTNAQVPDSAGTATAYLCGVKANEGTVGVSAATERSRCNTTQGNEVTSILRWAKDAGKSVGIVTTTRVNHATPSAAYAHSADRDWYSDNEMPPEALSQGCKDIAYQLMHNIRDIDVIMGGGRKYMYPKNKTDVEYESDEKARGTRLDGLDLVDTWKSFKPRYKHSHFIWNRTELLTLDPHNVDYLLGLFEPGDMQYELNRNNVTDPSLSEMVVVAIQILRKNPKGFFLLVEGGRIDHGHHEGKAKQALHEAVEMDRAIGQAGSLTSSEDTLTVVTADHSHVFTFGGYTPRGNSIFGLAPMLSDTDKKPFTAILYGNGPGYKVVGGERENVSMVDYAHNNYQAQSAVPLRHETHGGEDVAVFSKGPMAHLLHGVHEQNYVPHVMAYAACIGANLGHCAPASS
Protocol: <Test Examples> (Test Example 1) Inhibitory Test of TNAP Activity
COS1 cells (DS Pharma Biomedical Co., Ltd.) were transfected with human TNAP (OriGene Technologies, Inc.) using Lipofectamine LTX & Plus reagent (Invitrogen Corp.). On the next day, the medium was replaced with a fresh medium, and the cells were cultured in an incubator for 3 days. After 3 days, the culture supernatant was collected and concentrated by centrifugation at 5000 G for 30 minutes using Amicon 14, 10^4 cut (Merck Millipore). The concentrated culture supernatant was dialyzed against 5 L of 50 mM Tris/200 mM NaCl/1 mM MgCl2/20 μM ZnCl2 twice and used as an enzyme source (enzyme solution). The substrate pNPP (ProteoChem Inc.) was adjusted to 3.1 mM with Milli-Q water, and a solution of each test compound dissolved in dimethyl sulfoxide (DMSO; Wako Pure Chemical Industries, Ltd.) by 6 serial dilutions at a 5-fold common ratio from 100 μM or DMSO was added thereto at a final concentration of 1% by volume. The enzyme solution adjusted to 2 μg/mL with an assay buffer (200 mM Tris/2 mM MgCl2/0.04 mM ZnCl2/0.01% Tween 20) was added in the same amount of the substrate solution and incubated at room temperature for 60 minutes. Then, the absorbance (ABS: 405 nm) was measured using a microplate reader (model plus 384, Molecular Devices, LLC), and the concentration of produced p-nitrophenol was calculated.

[1] = tested on: plasma ALP (80-90% containing TNAP); assay: Inhibitory test of plasma TNAP activity in B6 mouse; format: in vivo; conditions: 0.3 mg/kg orally in 0.5% methylcellulose, average inhibition from 0 hour to 6 hours after administration, activity before administration = 100%
Protocol: (Test Example 3) Inhibitory Test of Plasma TNAP Activity in B6 Mouse (Charles River Laboratories Japan, Inc.)
After blood sampling from the tail vein using a heparin-treated hematocrit capillary tube (EM Meister Hematocrit Capillary Tube, AS ONE Corp.) (as the sample before compound administration), each test compound suspended in a 0.5% methylcellulose solution (powder purchased from Wako Pure Chemical Industries, Ltd. was adjusted to 0.5% with Otsuka distilled water) was administered orally to the mouse (0.3 mg/kg). 1, 2, 4, 6, and 24 hours after the administration, blood was collected from the tail vein using a heparin-treated hematocrit capillary tube to obtain a plasma sample. The plasma sample was added to an assay buffer (1 M Tris, 1 M MgCl2, 20 mM ZnCl2, and water, pH 7.5), and the mixture was left standing for 5 minutes. Then, the absorbance at 405 nm was measured and used as a blank. The substrate pNPP was added to the plasma sample and incubated at room temperature for 180 minutes. Then, the absorbance (ABS: 405 nm) was measured using a microplate reader (model plus 384, Molecular Devices, LLC), and the concentration of produced p-nitrophenol was calculated. The blank was subtracted from all measurement values to calculate TNAP activity at each time point with the TNAP activity of the sample before compound administration defined as 100%.
It was calculated according to the following expression: 100−((plasma ALP activity at 0 hr+plasma ALP activity at 1 hr)*1/2+(plasma ALP activity at 1 hr+plasma ALP activity at 2 hr)*1/2+(plasma ALP activity at 2 hr+plasma ALP activity at 4 hr)*2/2+(plasma ALP activity at 4 hr+plasma ALP activity at 6 hr)*2/2)/6.

Question: For `Cc1cncc(S(=O)(=O)Nc2c(F)cc(Cl)cc2-c2ccc(OC(C)(C)C(=O)O)cc2)c1` [Example 3, 2-({5′-Chloro-3′-fluoro-2′-[(5-methylpyridine-3-sulfonyl)amino][1,1′-biphenyl]-4-yl}oxy)-2-methylpropanoic acid], which IC50 (human TNAP) is on record?
Answer: 0.24 nM

Question: What about the “Plasma ALP Inhibition (6 h ave. inhibition %)” value [1] of the same compound?
Answer: 70.5%

Question: For `Cc1cncc(S(=O)(=O)Nc2c(F)cc(Cl)cc2-c2ccc(CC(=O)O)cc2)c1` [Example 11, {5′-Chloro-3′-fluoro-2′-[(5-methylpyridine-3-sulfonyl)amino][1,1′-biphenyl]-4-yl}acetic acid], which IC50 (human TNAP) is on record?
Answer: 0.14 nM

Question: And the “Plasma ALP Inhibition (6 h ave. inhibition %)” value [1]?
Answer: 79.0%

Question: Which results are given for `Cc1cncc(S(=O)(=O)Nc2c(F)cc(Cl)cc2-c2ccc(CC(=O)O)cc2)c1C` [Example 12, {5′-Chloro-2′-[(4,5-dimethylpyridine-3-sulfonyl)amino]-3′-fluoro[1,1′-biphenyl]-4-yl}acetic acid]?
Answer: IC50 (human TNAP): 0.1 nM; Plasma ALP Inhibition (6 h ave. inhibition %) [1]: 82.2%

Question: `Cc1cncc(S(=O)(=O)Nc2c(F)cc(Cl)cc2-c2ccc(OC(C)(C)C(=O)O)cc2)c1C` [Example 8, 2-({5′-Chloro-2′-[(4,5-dimethylpyridine-3-sulfonyl)amino]-3′-fluoro[1,1′-biphenyl]-4-yl}oxy)-2-methylpropanoic acid] was tested. Which IC50 (human TNAP) did it give?
Answer: 0.15 nM

Question: And the “Plasma ALP Inhibition (6 h ave. inhibition %)” value [1]?
Answer: 76.2%

Question: What does the source list for `CCc1cncc(S(=O)(=O)Nc2c(F)cc(Cl)cc2-c2ccc(CCC(=O)O)cc2)c1` [Example 29, 3-{5′-Chloro-2′-[(5-ethylpyridine-3-sulfonyl)amino]-3′-fluoro[1,1′-biphenyl]-4-yl}propanoic acid]?
Answer: IC50 (human TNAP): 0.18 nM; Plasma ALP Inhibition (6 h ave. inhibition %) [1]: 70.9%

Source: patent publication US11932600B2, “Biaryl derivative” (DAIICHI SANKYO COMPANY, LIMITED, priority 2018, dated 2024)
